# Results taken from a melting point compilation (Tetko et al.; mined from patent text by program, amines drawn as free bases though some values may be those of a salt).
row,Structure (SMILES),melting point [°C]
1,O=C1C=CC(OCc2ccccc2)N1S(=O)(=O)c1ccccc1 (stereo not drawn),56 to 58
2,Cc1c(-c2cc(C#N)ccc2F)sc2nc(N)[nH]c(=O)c12,332 to 336
3,O=C(CNc1ccc(S(=O)(=O)O)cc1)c1ccccc1,> 300
4,COc1ccc(N2CCN(c3c(C)c(C)c4c(c3C)CC(C)(CC#N)O4)CC2)cc1 (stereo not drawn),161 to 163
5,CC(=O)Oc1cc2c(s1)CCN(C(C(=O)C1CC1)c1ccccc1F)C2 (stereo not drawn),120 to 122
6,Cc1nc(N2CCN(CC3CCCCO3)C2=O)sc1C(=O)NCc1cccnc1 (stereo not drawn),174 to 175
7,O=C(O)C=Cc1ccc(CCc2ccncc2)cc1,> 300
8,C=Cc1c(NCc2ccco2)nc(C2CC2)nc1C(=O)OC,85 to 86
9,CCOC(=O)c1cn2c(=O)n(CC)c3ccccc3n2c1=O,235 to 237
10,Cc1cc(N)nc(CCCCCCCCCCO)c1O,138 to 139
11,CCC(=C1SCN(C)CS1)c1ccc(Oc2ccccc2)cc1,96 to 96.5
12,Cc1cccc(C(=O)C(C)(C)C(C)(C)[N+](=O)[O-])c1,50 to 51
13,CS(=O)(=O)c1ccc(-n2cncc2-c2ccc(Cl)nc2)cc1,191 to 192
14,Cc1cc(Cl)nn2c(-c3ccnc4c3ccn4S(=O)(=O)c3ccccc3)c(-c3ccc(F)cc3)nc12,226 to 228
15,O=C(O)c1cc(C(F)(F)F)ccc1Cl,93 to 94
16,O=[N+]([O-])c1sc2ccc(F)cc2c1Br,129 to 130
17,C#Cc1cccc(NC(=O)c2cc(-c3ccc(F)cc3F)ccc2O)c1,215 to 216
18,CCS(=O)(=O)c1ccc(-c2coc3ccc(-c4nnc(C)o4)cc23)cc1F,200 to 201
19,CCOCc1nc2c(N)nc3ccccc3c2n1CC1(NC(C)=O)CCCCC1,178 to 180
20,COc1cc(CNC(=S)NC(COC(=O)C(C)(C)C)Cc2ccc(C)c(C)c2)ccc1OCCN (stereo not drawn),62 to 63
21,CN1CC(CCN2CCN(c3ccc(C(F)(F)F)cc3)CC2)OC1=O (stereo not drawn),116 to 117
22,O=c1[nH]c2ccccc2c(=O)n1-c1ccc(Cl)cc1,288 to 290
23,CC(O)(CCN1C(=O)c2ccccc2C1=O)c1ccc(-c2ccc(Cl)cc2)cc1 (stereo not drawn),177 to 179
24,CNC(=O)CN1CCC(O)C1=O (stereo not drawn),129 to 130
25,CC(C)(C)OC(=O)[C@H](CC(=O)c1ccc2oc3ccccc3c2c1)NC(=O)C(F)(F)F,92 to 94

row,Structure (SMILES),melting point [°C]
1,CCOC(=O)NC(CCSC)C(N)=O (racemic),110 to 112
2,CN(CC(O)c1ccc(Br)cc1)C(=O)OC(C)(C)C (stereo not drawn),80 to 82
3,O=C(O)CCC(=O)c1ccc(SCCCBr)cc1,91 to 94
4,CCCCS(=O)(=O)OCCN(CCBr)c1c(C(=O)NCCOP(=O)(O)O)cc([N+](=O)[O-])cc1[N+](=O)[O-],123 to 125
5,O=C1NC(=O)C(CC#Cc2ccc(Cl)cc2)(S(=O)(=O)c2cc(Cl)c(Cl)s2)S1 (stereo not drawn),160
6,NC(=O)C(=O)NC(C(=O)O)c1ccccc1 (stereo not drawn),193
7,COc1ccc(CN(C)CCc2ccc(NC(=O)c3cccc4c(=O)c5cc(F)ccc5sc34)cc2)cc1OC,205
8,CCCNC(=O)Nc1ccccc1C(=O)OC,102
9,C(=CCN(C1CCCCC1)C1CCCCC1)CN(C1CCCCC1)C1CCCCC1,136 to 138
10,CCS(=O)(=O)N[C@H](C(=O)NCCc1cc(Br)c(OCC#Cc2ccc(Cl)cc2)c(OC)c1)C(C)C,109 to 111
11,Oc1ccccc1OCCOCCOc1ccccc1O,85
12,CCOC(=O)C1=C(C(F)(F)F)Nc2n[nH]cc2C1c1ccccc1F (stereo not drawn),119 to 120
13,O=C(Nc1ccccc1)c1nn(-c2cccc(C(F)(F)F)c2)ccc1=O,181 to 182
14,Cc1cc2c(c3ccc(=O)[nH]c13)O[C@@H](CN)[C@@H]2CO (racemic),> 300
15,CNc1c(NCCSCc2[nH]cnc2C)c(=O)c1=O,208
16,NS(=O)(=O)c1cc(C(=O)O)cc([N+](=O)[O-])c1Sc1ccccc1,245 to 247
17,O=C=Nc1ccc2c(c1)C(=O)CC2,72
18,O=C1CC2CCSc3sccc3C2=NN1c1ccc(Cl)cc1 (stereo not drawn),134 to 135
19,O=C1c2ccccc2C(=O)N1CCCC1c2ccccc2C=Cc2ccccc21,126 to 132
20,COC(=O)C(C)(C)Nc1ncc(I)cc1[N+](=O)[O-],121 to 122
21,O=C1Oc2ccccc2C1(Cc1ccccc1)Cn1cncn1 (stereo not drawn),150
22,COC(=O)c1sc(OC)cc1OP(=O)(OC)OC,35
23,Cc1ccc(S(=O)(=O)N[C@@H](C)C(=O)Oc2csc(-c3ccccc3)n2)cc1,110 to 112
24,CC(C)(C#N)c1ccc(C(=O)Nc2cn3cc(Cl)ccc3n2)cc1,248 to 250
25,COc1ccc2nc3[nH]nc(N)c3cc2c1,> 300

row,Structure (SMILES),melting point [°C]
1,CC(C)(C)c1ccc(S(=O)(=O)C(CCl)Sc2ccccc2)cc1 (stereo not drawn),104 to 106
2,Nc1ccc2c(c1)C(=O)N(c1ccc3ccsc3c1)C2,233 to 236
3,CSc1sc(C(N)=O)c(C(C)C)c1-c1oncc1C,105
4,CCN(Cc1cc(Cl)ccc1OCC1CC1)c1ccc(C(N)=O)nn1,177 to 178
5,Cc1cc(N2CC=C(C(=O)O)CC2)c2cccc(-c3ccc(Cl)cc3Cl)c2n1,218 to 220
6,Oc1cccc(-c2c(-c3ccccc3F)cnc3c(C(F)(F)F)cccc23)c1,186 to 187
7,COc1ccc2c(c1)c(Cc1cc(=O)n(-c3cccc(Cl)c3)[nH]1)c(C)n2C(=O)c1ccc(Cl)cc1,148 to 150
8,CC(C)(C)c1cc(SCCC(=O)N2CCOCC2)cc(C(C)(C)C)c1O,136 to 138
9,Cc1cnc2ccnn2c1-c1cccc(C(F)(F)F)c1,168 to 169
10,CCc1nc2c(N)nc3cc(-c4ccc(F)nc4)cnc3c2n1CC(C)(C)O,250 to 251
11,Clc1ccc(CNc2nc(-c3cccc(Cl)n3)nc3ccccc23)cc1,187 to 190
12,Nc1ccccc1/C=C/c1ncon1,108 to 109
13,CC(C)(C)OC(=O)C(C1NC(C(=O)OCc2ccccc2)C2(CCOCC2)S1)N1C(=O)c2ccccc2C1=O (stereo not drawn),168 to 169
14,CC(C=CC(C)C(C)(C)O)C1CCC2C(=O)CCCC21C (stereo not drawn),101 to 102
15,Cc1c(-c2ccc(Cl)cc2Cl)nc(C#N)n1S(=O)(=O)N(C)C,92 to 95
16,O=C(c1ccccc1)N1CCCC1c1cccc(O)c1 (stereo not drawn),167 to 169
17,CCOC(=O)c1cnn2c(-c3cccnc3)ccnc12,170 to 171
18,COc1nnc(-c2ccccc2)cc1C,62 to 64
19,COC(=O)c1c(C(=O)OC)c2sc3ccccc3n2c1-c1ccc(Cl)cc1,172 to 173
20,COC(=O)C(C(=O)OC)c1ccc(C(=O)O)cc1[N+](=O)[O-],147 to 149
21,C(=C\c1nc(COc2ccccc2CCCn2cncn2)co1)/c1ccccc1,72 to 73
22,CC(C(=O)Nc1ccccc1)n1nc(O)c2[nH]c3cc(Cl)ccc3c(=O)c2c1=O (stereo not drawn),215
23,CCn1cc(C(=O)NCc2ccc(Cl)cc2)c(=O)c2sccc21,189 to 192
